In patent publication US4145296A, “Weather-durable aqueous fire retardant stabilized against gelation” (priority 1977, dated 1979):
Like-named read-outs stand apart in the source and are kept apart here.

How the values were obtained:
[1] = for Viscosity in centipoises at 1 Hr. / Viscosity in centipoises at 4 Hrs. / Viscosity in centipoises at 6 Min. / Viscosity in centipoises at 21-28 Hrs. / Viscosity in centipoises at 0: additive at 3 percent weight; for gel inhibition / stabilization of aqueous dispersion (in words): conclusion from Tables II and III
[2] = pH of the aqueous dispersion; assay type: physicochemical; details: for Initial Dispersion pH: additive at 3 percent weight in Control dispersion; for pH (MEA At 3%): 3% MEA
[3] = thermodynamic; cited from earlier work

Row | Structure (SMILES) | Initial Dispersion pH [2] | Viscosity in centipoises at 1 Hr. ([1]; 1 Hr.) | Viscosity in centipoises at 4 Hrs. ([1]; 4 Hrs.) | Viscosity in centipoises at 6 Min. ([1]; 6 Min.) | Viscosity in centipoises at 0 ([1]; time 0) | also measured
1 | N.N.O=C(O)O [Ammonium carbonate] |  |  |  |  |  | Viscosity in centipoises at 1 Hr. ([1]; 1 Hr., listed as Ammonium carbonate (20%)): 850 centipoises; Viscosity in centipoises at 1 Hr. ([1]; 1 Hr., listed as Ammonium carbonate (100%)): 525 centipoises; Viscosity in centipoises at 4 Hrs. ([1]; 4 Hrs., listed as Ammonium carbonate (20%)): 1900 centipoises; Viscosity in centipoises at 4 Hrs. ([1]; 4 Hrs., listed as Ammonium carbonate (100%)): 800 centipoises; Viscosity in centipoises at 6 Min. ([1]; 6 Min., listed as Ammonium carbonate (20%)): 575 centipoises; Viscosity in centipoises at 6 Min. ([1]; 6 Min., listed as Ammonium carbonate (100%)): 350 centipoises; Viscosity in centipoises at 21-28 Hrs. ([1]; 21-28 Hrs.): gel; Viscosity in centipoises at 0 ([1]; time 0, listed as Ammonium carbonate (20%)): 475 centipoises; Viscosity in centipoises at 0 ([1]; time 0, listed as Ammonium carbonate (100%)): 300 centipoises; longer term storage of the aqueous dispersion (in words) ([1]; longer term storage): evidence of polymerization and gas evolution
2 | O.O.O.O.O.O.O.O.O.O.O.O.O=P([O-])([O-])[O-].[Na+].[Na+].[Na+] [Trisodium phosphate . 12H2 O] | 7.7 | 850 centipoises | 1500 centipoises | 600 centipoises | 450 centipoises | 
3 | OCCNCCO [Diethanolamine] | 9.0 | 750 centipoises | 875 centipoises |  | 600 centipoises | 
4 | C1COCCN1 [Morpholine, tetrahydro-p-oxazine] | 8.7 | 725 centipoises | 800 centipoises | 525 centipoises | 550 centipoises | Viscosity in centipoises at 21-28 Hrs. ([1]; 21-28 Hrs.): 2700 centipoises
5 | NC(N)=O [Urea] | 6.6 | 800 centipoises | 1800 centipoises | 650 centipoises | 600 centipoises | 
6 | NCCN [Ethylenediamine, diaminoethane] |  | 525 centipoises | 500 centipoises | 500 centipoises | 450 centipoises | gel inhibition / stabilization of aqueous dispersion (in words) [1]: superior gel inhibitors; pKa at 25° C. [3]: greater than 8.0
7 | N [Ammonium hydroxide] |  | 550 centipoises | 575 centipoises | 400 centipoises | 400 centipoises | Viscosity in centipoises at 21-28 Hrs. ([1]; 21-28 Hrs.): 750 centipoises; gel inhibition / stabilization of aqueous dispersion (in words) [1]: good stabilization results
8 | NCCO [Monoethanolamine, 2-aminoethanol] |  |  |  |  |  | pH (MEA At 3%) ([2]; 1 Hr.): 9.1; pH (MEA At 3%) ([2]; 4 Hrs.): 9.1; pH (MEA At 3%) ([2]; 6 Min.): 9.2; pH (MEA At 3%) ([2]; 21-28 Hrs.): 8.7; pH (MEA At 3%) ([2]; time 0): 9.3; Viscosity with Monoethanolamine (MEA) ([1]; 1.5% MEA in Control dispersion, time 0): 610 Centipoises; Viscosity with Monoethanolamine (MEA) ([1]; 1.5% MEA, 1 Hr.): 760 Centipoises; Viscosity with Monoethanolamine (MEA) ([1]; 1.5% MEA, 4 Hrs.): 1125 Centipoises; Viscosity with Monoethanolamine (MEA) ([1]; 1.5% MEA, 6 Min.): 625 Centipoises; Viscosity with Monoethanolamine (MEA) ([1]; 2% MEA in Control dispersion, time 0): 650 Centipoises; Viscosity with Monoethanolamine (MEA) ([1]; 2% MEA, 1 Hr.): 750 Centipoises; Viscosity with Monoethanolamine (MEA) ([1]; 2% MEA, 4 Hrs.): 925 Centipoises; Viscosity with Monoethanolamine (MEA) ([1]; 2% MEA, 6 Min.): 700 Centipoises; Viscosity with Monoethanolamine (MEA) ([1]; 3% MEA in Control dispersion, time 0): 625 Centipoises; Viscosity with Monoethanolamine (MEA) ([1]; 3% MEA, 1 Hr.): 700 Centipoises; Viscosity with Monoethanolamine (MEA) ([1]; 3% MEA, 4 Hrs.): 750 Centipoises; Viscosity with Monoethanolamine (MEA) ([1]; 3% MEA, 6 Min.): 700 Centipoises; Viscosity with Monoethanolamine (MEA) ([1]; 3% MEA, 21-28 Hrs.): 1150 Centipoises
9 | O.O.O.O.O.O.O.O=P([O-])([O-])O.[Na+].[Na+] [Disodium phosphate . 7H2 O] | 7.0 | 975 centipoises | 2100 centipoises | 600 centipoises | 500 centipoises | 
10 | [K+].[OH-] [Potassium hydroxide] |  |  |  |  |  | Viscosity in centipoises at 21-28 Hrs. ([1]; 21-28 Hrs.): 1450 centipoises
11 | O=P(O)(O)OP(=O)(O)O [Tetrasodium pyrophosphate . 10H2 O] |  | 900 centipoises | 1300 centipoises | 600 centipoises | 500 centipoises | 
12 | CC(O)CN(CC(C)O)CC(C)O (stereo not shown) [Triisopropanolamine] |  |  |  |  |  | pKa at 25° C. [3]: 7.86
13 | CN(C)C=O [Dimethyl formamide] |  | 900 centipoises | 3100 centipoises | 500 centipoises | 475 centipoises | 
14 | CCN1CCOCC1 [N-Ethylmorpholine] |  |  |  |  |  | pKa at 25° C. [3]: 7.67
15 | O=P([O-])([O-])O.[Na+].[Na+] [Disodium phosphate anhydrous] | 7.2 | 875 centipoises | 1900 centipoises | 550 centipoises | 425 centipoises | 
16 | C1N2CN3CN1CN(C2)C3 [Hexamethylene tetramine] | 6.7 | 950 centipoises | 2000 centipoises | 550 centipoises | 500 centipoises | 
17 | C1CCNCC1 [Piperidine] | 9.9 | 725 centipoises | 800 centipoises | 650 centipoises | 600 centipoises | 
